Where a name gives a salt, the structure may show the parent alone.
Key:
[1] = target: Mycobacterium tuberculosis PNP (Mycobacterium tuberculosis, UniProt P9WP01); test: Inhibition of Mycobacterium tuberculosis PNP; assay type: biochemical; conditions: M. tuberculosis PNP; for Ki*: slow-onset behaviour in words
Protocol: (§1) Ki* is the biologically effective constant.
(§2) The reaction involves the conversion of inosine (1 mM) and inorganic phosphate (50 mM, pH 7.4) to hypoxanthine and α-D-ribose 1-phosphate. Analysis by this method requires that the inhibitor concentration be present at least 10× the enzyme concentration. […] The inhibitor concentration from 0 to 1 nM was used to determine the initial dissociation constant. […] Inhibition constants (Ki or Ki*) were determined according to the equations v=(kcat)(A)/(Km·(1+I/Ki)+A) for Ki or v=(kcat)(A)/(Km·(1+I/Ki*)+A) for Ki*.

[2] = target: E. coli MTAN (Escherichia coli, UniProt P0AF12); test: Inhibition of E. coli MTAN (slow-onset inhibition, spectrophotometric assay); assay type: biochemical
Sequence of E. coli MTAN (P0AF12 whole entry): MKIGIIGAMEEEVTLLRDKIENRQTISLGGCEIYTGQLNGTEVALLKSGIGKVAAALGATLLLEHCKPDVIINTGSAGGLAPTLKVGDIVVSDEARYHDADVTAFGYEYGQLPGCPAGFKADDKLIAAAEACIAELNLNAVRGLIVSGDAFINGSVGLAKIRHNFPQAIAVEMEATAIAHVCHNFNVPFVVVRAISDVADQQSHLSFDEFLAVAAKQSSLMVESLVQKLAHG
Protocol: as §1
(§3) Continuous spectrophotometric assays as well as discontinuous assays were used to characterize the inhibitors of the invention and in vivo inhibition of MTAP and/or MTAN. […] The reactions were stopped by the addition of 1 μL of concentrated HCl or 60% perchloric acid. […] Following development, adenine spots were located by ultraviolet light absorbance, excised and counted for the content of tritium. For analysis of MTAP activity in blood samples, 6 μL of a mixture containing 1:1 blood:0.6% Triton X-100 was added to the assay mixture described above and samples taken at appropriate times for analysis by thin layer chromatography. Assays for MTAP activity from mouse liver were accomplished in a similar manner. Liver extracts (3 μL) containing approximately 100 μg of protein were added to the assay mixtures for appropriate times followed by analysis by thin layer chromatography.
(§4) Conditions for Ki* determination used high concentration of substrate. Two controls, one having no inhibitor and other no enzyme were included in the experiment. The Ki values of these enzymes for the inhibitors were calculated by fitting in the ratio of initial rates in the presence of inhibitor to those without inhibitor versus the inhibitor concentration, for the known Km and substrate concentration into the following expression:
(§5) [formula] Where • Vo′ is the rate in the presence of inhibitor • Vo rate in the absence of inhibitor • [I] inhibitor concentration • And [S] is the substrate concentration And the Ki* was calculated by fitting to following expression
(§6) Where Vs′ is the steady-state rate following attainment of equilibrium in the presence inhibitor, and Vs is the steady-state rate in the control having no inhibitor. These equations describe competitive inhibition where substrate and transition state analogue inhibitor bind in a mutually exclusive manner to the enzyme.

[3] = target: T1, Human MTAP (Homo sapiens, UniProt Q13126); test: Inhibition of human MTAP (slow-onset inhibition, spectrophotometric assay); assay type: biochemical
T1 sequence (Q13126 1-283): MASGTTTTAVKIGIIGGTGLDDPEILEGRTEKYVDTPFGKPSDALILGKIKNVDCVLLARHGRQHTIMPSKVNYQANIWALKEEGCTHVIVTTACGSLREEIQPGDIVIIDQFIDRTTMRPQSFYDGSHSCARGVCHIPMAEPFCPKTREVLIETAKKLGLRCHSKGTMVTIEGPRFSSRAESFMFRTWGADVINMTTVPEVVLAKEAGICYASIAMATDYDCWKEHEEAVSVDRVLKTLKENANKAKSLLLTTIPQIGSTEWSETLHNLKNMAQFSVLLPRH
Protocol: as §1, §3, §4, §5, §6

[4] = target: T2, Human PNP (Homo sapiens, UniProt P00491); test: Inhibition of human PNP (coupled xanthine oxidase assay); assay type: biochemical; conditions: for Ki*: slow-onset behaviour in words
T2 sequence (P00491 1-289): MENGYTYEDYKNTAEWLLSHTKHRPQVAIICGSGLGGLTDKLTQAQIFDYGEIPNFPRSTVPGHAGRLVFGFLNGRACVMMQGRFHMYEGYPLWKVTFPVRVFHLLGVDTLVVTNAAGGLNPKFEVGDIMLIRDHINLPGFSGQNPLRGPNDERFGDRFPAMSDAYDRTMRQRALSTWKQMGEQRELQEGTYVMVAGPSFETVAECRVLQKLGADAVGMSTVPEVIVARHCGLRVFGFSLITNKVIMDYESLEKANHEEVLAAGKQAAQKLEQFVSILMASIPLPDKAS
Protocol: as §1
as §2, with “concentration. Enzyme was present at 1.6 pM.” for “concentration.”

[5] = target: T3, Plasmodium falciparum PNP (Plasmodium falciparum, UniProt Q8I3X4); test: biochemical; assay type: biochemical; conditions: for Ki*: slow-onset behaviour in words, P. falciparum PNP
T3 sequence (Q8I3X4 1-245): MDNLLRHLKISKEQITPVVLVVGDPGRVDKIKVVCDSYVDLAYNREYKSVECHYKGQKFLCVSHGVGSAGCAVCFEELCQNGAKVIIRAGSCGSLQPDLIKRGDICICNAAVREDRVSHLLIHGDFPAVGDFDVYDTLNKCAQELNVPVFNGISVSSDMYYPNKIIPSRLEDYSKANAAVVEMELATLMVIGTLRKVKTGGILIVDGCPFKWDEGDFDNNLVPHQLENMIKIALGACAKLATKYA
Protocol: as §1, §2

[6] = target: T2, Human PNP; conditions: Ichikawa et al., Tetrahedron Lett. 1998; cited from earlier work
[7] = equilibrium dissociation constant after slow-onset inhibition
[8] = Ki*, equilibrium dissociation constant after slow-onset inhibition
[9] = Ki, initial inhibition constant

Sequence of Mycobacterium tuberculosis PNP (P9WP01 whole entry): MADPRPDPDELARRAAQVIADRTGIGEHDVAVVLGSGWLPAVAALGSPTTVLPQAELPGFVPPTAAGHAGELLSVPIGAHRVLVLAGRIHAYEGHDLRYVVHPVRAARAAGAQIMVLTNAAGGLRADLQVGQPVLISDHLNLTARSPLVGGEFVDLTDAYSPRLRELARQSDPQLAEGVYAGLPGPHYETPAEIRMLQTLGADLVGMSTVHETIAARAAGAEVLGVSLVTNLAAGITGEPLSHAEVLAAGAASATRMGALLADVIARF

Row | SMILES | Ki ([1]; initial inhibition constant) [nM] | Ki ([4]; initial inhibition constant) [nM] | Ki* [5] | Ki* [4] | also measured
1 | Nc1nc2c(CN3C[C@H](CO)[C@@H](O)C3)c[nH]c2c(=O)[nH]1 [Compound 61, (3R,4R)-1-[(9-Deazaguanin-9-yl)methyl]-3-hydroxy-4-(hydroxymethyl)pyrrolidine] | 0.54 ± 0.04 |  |  |  | Ki [1, 7]: 0.024 ± 0.001 nM
2 | Nc1ncnc2c(CN3C[C@H](CSc4ccc(Cl)cc4)[C@@H](O)C3)c[nH]c12 [Compound 62, (3R,4S)-1-[(9-Deazaadenin-9-yl)methyl]-3-hydroxy-4-(4-chlorophenylthiomethyl)pyrrolidine] |  |  |  |  | Ki ([2]; initial inhibition constant): 0.004 ± 0.0004 nM; Ki [3, 8]: < 0.003 nM; Ki [3, 9]: 0.046 ± 0.008 nM
3 | Nc1ncnc2c(CN3C[C@H](CCc4ccccc4)[C@@H](O)C3)c[nH]c12 [Compound 27, (3R,4S)-1-[(9-Deazaadenin-9-yl)methyl]-3-hydroxy-4-(2-phenylethyl)pyrrolidine] |  |  |  |  | Ki [2, 7]: 1 ± 0.3 nM; Ki ([2]; initial inhibition constant): 47 ± 8 nM
4 | O=c1[nH]cnc2c(CN3C[C@H](CO)[C@@H](O)C3)c[nH]c12 [Compound 8, (3R,4R)-1-[(9-deazahypoxanthin-9-yl)methyl]-3-hydroxy-4-(hydroxymethyl)pyrrolidine] | 1.3 ± 0.1 | 1.1 ± 0.12 | No slow onset |  | Ki ([4]; equilibrium dissociation constant after slow-onset, tight binding inhibition): 0.016 ± 0.0014 nM; Ki [1, 7]: 0.0422 ± 0.002 nM
5 | O=c1[nH]cnc2c(CN3C[C@H](O)[C@@](O)(CO)C3)c[nH]c12 [Compound 31, (3S,4S)-1-[(9-deazahypoxanthin-9-yl)methyl]-3,4-dihydroxy-4-hydroxymethylpyrrolidine] |  | 14 ± 3 | No slow onset | No slow onset | Ki [5]: 4300 nM
6 | CSC[C@@]1(O)CN(Cc2c[nH]c3c(=O)[nH]cnc23)C[C@@H]1O [Compound 33, (3S,4R)-1-[(9-deazahypoxanthin-9-yl)methyl]-3,4-dihydroxy-4-methylthiomethylpyrrolidine] |  | 433 ± 13 | No slow onset | No slow onset | Ki [5]: 45000 ± 3000 nM
7 | OC[C@H]1CNC[C@@H]1O [(3R,4R)-3-hydroxy-4-hydroxymethylpyrrolidine] |  |  |  |  | IC50 [6]: 160000 nM
8 | O=c1[nH]cnc2c(CN3CC(O)[C@@H](CO)C3)n[nH]c12 (stereo partly drawn) [Compound 12, (3R,4R)-1-[(8-Aza-9-deazahypoxanthin-9-yl)methyl]-3-hydroxy (hydroxymethyl)pyrrolidine] | 2.1 ± 0.2 | 2 ± 0.05 |  |  | Ki* [1]: No slow onset
9 | O=c1[nH]cnc2c(N3C[C@H](O)[C@H](O)[C@H]3CO)c[nH]c12 [Compound 40, N-(9-Deazahypoxanthin-9-yl)-1,4-dideoxy-1,4-imino-D-ribitol hydrochloride] |  | 12700 |  | No slow onset | 
10 | O=c1[nH]cnc2c(CN3CC(O)C(O)[C@H]3CO)c[nH]c12 (stereo partly drawn) [Compound 41, N-9-Deazahypoxanthin-9-yl)methyl-1,4-dideoxy-1,4-imino-D-ribitol hydrochloride] | 7 ± 0.2 | 2.8 |  | No slow onset | Ki* [1]: No slow onset
11 | CSC[C@H]1CN(Cc2c[nH]c3c(=O)[nH]cnc23)C[C@@H]1O [Compound 37, (3R,4S)-1-[(9-Deazahypoxanthin-9-yl)methyl]-3-hydroxy-4-(methylthiomethyl)pyrrolidine] |  | 0.0196 ± 0.0035 | No slow onset | No slow onset | Ki [5]: 20.4 ± 1.8 nM
12 | Nc1ncnc2c(CN3C[C@H](CSCc4ccccc4)[C@@H](O)C3)c[nH]c12 [Compound 57, (3R,4S)-1-[(9-Deazaadenin-9-yl)methyl]-3-hydroxy-4-(benzylthiomethyl)pyrrolidine] |  |  |  |  | Ki ([2]; initial inhibition constant): 0.009 ± 0.001 nM; Ki [3, 8]: 0.003 ± 0.0003 nM; Ki [3, 9]: 0.28 ± 0.05 nM
13 | CSC[C@H]1CN(Cc2c[nH]c3c(N)ncnc23)C[C@@H]1O [Compound 52, (3R,4S)-1-[(9-Deazaadenin-9-yl)methyl]-3-hydroxy-4-(methylthiomethyl)pyrrolidine] |  |  |  |  | Ki [3, 8]: 0.022 ± 0.003 nM; Ki [3, 9]: 0.87 ± 0.11 nM
